pIC50: −log10 of the molar value. Where only a bound is given, the exact number is not on record here.

The target in the experiment is human MER (528-end) (Homo sapiens (Human), UniProt Q12866). The experiment in a line: HTRF Kinase Activity Biochemical Assay (KinEASE-TK). The conditions noted are these: 10 uM ATP. Put shortly: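 Recombinant human MER (528-end) phosphorylated biotin-TK peptide substrate, 1 h at room temperature. Reaction stopped with detection buffer containing 0.375 nM Eu3+-cryptate anti-TK antibody and 0.062 uM streptavidin-XL665, 1 h further. Activity taken as HTRF ratio 665/620 nm ×10,000, 340 nm excitation.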
Sequence of human MER (528-end) (Q12866 528-999 limits assumed): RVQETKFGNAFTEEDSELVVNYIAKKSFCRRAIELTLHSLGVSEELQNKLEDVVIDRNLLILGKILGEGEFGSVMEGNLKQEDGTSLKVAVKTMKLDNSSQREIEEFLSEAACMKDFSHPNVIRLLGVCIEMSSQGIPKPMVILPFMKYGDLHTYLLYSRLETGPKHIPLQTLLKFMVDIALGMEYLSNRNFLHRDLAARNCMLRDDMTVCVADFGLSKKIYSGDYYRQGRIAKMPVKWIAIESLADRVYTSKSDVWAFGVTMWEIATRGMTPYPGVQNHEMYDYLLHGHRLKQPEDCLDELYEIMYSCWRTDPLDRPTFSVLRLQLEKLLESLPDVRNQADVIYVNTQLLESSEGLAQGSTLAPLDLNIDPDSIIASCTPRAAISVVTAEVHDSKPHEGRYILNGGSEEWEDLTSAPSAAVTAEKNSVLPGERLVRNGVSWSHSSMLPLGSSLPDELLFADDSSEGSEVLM
In general terms: Time-resolved FRET reads energy transfer from a long-lived donor to a nearby acceptor.
Broadly, the pIC50 is the IC50 on a negative log10 scale, so that one unit is a factor of ten. A high value points to a small IC50. Take `Cn1cc(-c2cnc(N)c(C(=O)N[C@H]3CCN(C(=O)c4cccc(-c5ccccc5)c4)C3)c2)cn1` [Example 345, (S)—N-(1-([1,1′-biphenyl]-3-carbonyl)pyrrolidin-3-yl)-2-amino-5-(1-methyl-1H-pyrazol-4-yl)nicotinamide]: the pIC50 was under 6.00. Consider `Cn1cc(-c2cnc(N)c(C(=O)N[C@@H]3CCN(C(=O)Nc4ccc(-c5ccccc5)cc4)C3)c2)cn1` [Example 271, (R)—N -(1-([1,1′-biphenyl]-4-ylcarbamoyl)pyrrolidin-3-yl)-2-amino-5-(1-methyl-1H-pyrazol-4-yl)nicotinamide], for which the pIC50 is 6.00 to 7.00. The value for `Cn1cc(-c2cnc(N)c(C(=O)N[C@@H]3CCN(C(=O)c4ccc(-c5cc(Cl)cc(Cl)c5)cc4)C3)c2)cn1` [Example 363, (R)-2-amino-N-(1-(3′,5′-dichloro-[1,1′-biphenyl]-4-carbonyl)pyrrolidin-3-yl)-5-(1-methyl-1H-pyrazol-4-yl)nicotinamide] was 6.00 to 7.00. `Cn1cc(-c2cnc(N)c(C(=O)N[C@@H]3CCN(C(=O)c4ccc(-c5ccc(Cl)cc5Cl)cc4)C3)c2)cn1` [Example 361, (R)-2-amino-N-(1-(2′,4′-dichloro-[1,1′-biphenyl]-4-carbonyl)pyrrolidin-3-yl)-5-(1-methyl-1H-pyrazol-4-yl)nicotinamide]: the pIC50 is 7.00 to 8.00. Regarding `COc1cccc(CN2CC[C@@H](NC(=O)c3cc(-c4cnn(C)c4)cnc3N)C2)c1` [Example 209, (R)-2-amino-N-(1-(3-methoxybenzyl)pyrrolidin-3-yl)-5-(1-methyl-1H-pyrazol-4-yl)nicotinamide], the pIC50 was under 6.00. Consider `Nc1ncc(-c2cnn(C3CCNCC3)c2)cc1C(=O)N[C@@H]1CCN(C(CO)c2ccccc2)C1` (stereo partly drawn) [Example 629, 2-amino-N-((3R)-1-(2-hydroxy-1-phenylethyl)pyrrolidin-3-yl)-5-(1-(piperidin-4-yl)-1H-pyrazol-4-yl)nicotinamide], for which the pIC50 is under 6.00. Compound `Cn1cc(-c2cnc(N)c(C(=O)N[C@@H]3CCN(C(=S)Nc4cccc(Br)c4)C3)c2)cn1` [Example 52, (R)-2-amino-N-(1-((3-bromophenyl)carbamothioyl)pyrrolidin-3-yl)-5-(1-methyl-1H-pyrazol-4-yl)nicotinamide] showed a negative-log IC50 (pIC50) of under 6.00. For the compound `Cn1cc(-c2cnc(N)c(C(=O)N[C@@H]3CCN(C(=O)Nc4cccc(-c5ccc(CO)cc5)c4)C3)c2)cn1` [Example 259, (R)-2-amino-N-(1-((4′-(hydroxymethyl)-[1,1′-biphenyl]-3-yl)carbamoyl)pyrrolidin-3-yl)-5-(1-methyl-1H-pyrazol-4-yl)nicotinamide], the pIC50 is 6.00 to 7.00. In turn, `Cn1cc(-c2cnc(N)c(C(=O)N[C@@H]3CCN(Cc4cccc(Br)c4)C3)c2)cn1` [Example 231, (R)-2-amino-N-(1-(3-bromobenzyl)pyrrolidin-3-yl)-5-(1-methyl-1H-pyrazol-4-yl)nicotinamide] showed a pIC50 of under 6.00.

`Cn1cc(-c2cnc(N)c(C(=O)N[C@@H]3CCN(C(=O)c4ccc(-c5c(Cl)cccc5Cl)cc4)C3)c2)cn1` [Example 368, (R)-2-amino-N-(1-(2′,6′-dichloro-[1,1′-biphenyl]-4-carbonyl)pyrrolidin-3-yl)-5-(1-methyl-1H-pyrazol-4-yl)nicotinamide] showed a pIC50 of 6.00 to 7.00. With `Cn1cc(-c2cnc(N)c(C(=O)N[C@@H]3CCN(C(=O)c4ccc(-c5cnn(C6CCCC6)c5)cc4)C3)c2)cn1` [Example 508, (R)-2-amino-N-(1-(4-(1-cyclopentyl-1H-pyrazol-4-yl)benzoyl)pyrrolidin-3-yl)-5-(1-methyl-1H-pyrazol-4-yl)nicotinamide] the figure was under 6.00.

For the compound `Nc1ncc(-c2ccccc2)cc1C(=O)N[C@@H]1CCN(C(=O)c2ccc(-c3ccc(F)cc3Cl)cc2)C1` [Example 775, (R)-2-amino-N-(1-(2′-chloro-4′-fluoro-[1,1′-biphenyl]-4-carbonyl)pyrrolidin-3-yl)-5-phenylnicotinamide], the pIC50 is 6.00 to 7.00. For the compound `Cn1cc(-c2cnc(N)c(C(=O)N[C@@H]3CCN(C(=O)Nc4ccc(F)c(F)c4)C3)c2)cn1` [Example 3, (R)-2-amino-N-(1-((3,4-difluorophenyl)carbamoyl)pyrrolidin-3-yl)-5-(1-methyl-1H-pyrazol-4-yl)nicotinamide], the pIC50 was under 6.00. Compound `Cn1cc(-c2cnc(N)c(C(=O)N[C@@H]3CCN(C(=O)c4ccc(-c5cccc(C(=O)N6CCNCC6)c5)cc4)C3)c2)cn1` [Example 466, (R)-2-amino-5-(1-methyl-1H-pyrazol-4-yl)-N-(1-(3′-(piperazine-1-carbonyl)-[1,1′-biphenyl]-4-carbonyl)pyrrolidin-3-yl)nicotinamide] had a pIC50 of 6.00 to 7.00. In the case of `Cn1cc(-c2cnc(N)c(C(=O)N[C@@H]3CCN(C(=O)c4cccc(Oc5ccccc5)c4)C3)c2)cn1` [Example 412, (R)-2-amino-5-(1-methyl-1H-pyrazol-4-yl)-N-(1-(3-phenoxybenzoyl)pyrrolidin-3-yl)nicotinamide], the pIC50 was under 6.00. In turn, `Cn1cc(-c2cnc(N)c(C(=O)N[C@@H]3CCN(C(=O)c4ccc(-c5cc(F)cc(Cl)c5)cc4)C3)c2)cn1` [Example 663, (R)-2-amino-N-(1-(3′-chloro-5′-fluoro-[1,1′-biphenyl]-4-carbonyl)pyrrolidin-3-yl)-5-(1-methyl-1H-pyrazol-4-yl)nicotinamide] gave a pIC50 of 7.00 to 8.00.

Turning to `Cn1cc(-c2cnc(N)c(C(=O)N[C@@H]3CCN(C(=O)O[C@H]4C[C@@H]5CC[C@H]4C5)C3)c2)cn1` [Example 109, (1S,2S,4R)-bicyclo[2.2.1]heptan-2-yl (R)-3-(2-amino-5-(1-methyl-1H-pyrazol-4-yl)nicotinamido)pyrrolidine-1-carboxylate], the pIC50 is under 6.00.

In turn, `Cn1cc(-c2cnc(N)c(C(=O)N[C@@H]3CCN(C(=O)Oc4cc5ccccc5cc4O)C3)c2)cn1` [Example 97, 3-hydroxynaphthalen-2-yl (R)-3-(2-amino-5-(1-methyl-1H-pyrazol-4-yl)nicotinamido)pyrrolidine-1-carboxylate] showed a pIC50 of under 6.00. Turning to `COc1ccc(NC(=S)N2CC[C@@H](NC(=O)c3cc(-c4cnn(C)c4)cnc3N)C2)cc1` [Example 45, (R)-2-amino-N-(1-((4-methoxyphenyl)carbamothioyl)pyrrolidin-3-yl)-5-(1-methyl-1H-pyrazol-4-yl)nicotinamide], the pIC50 was under 6.00. For the compound `Cn1cc(-c2cnc(N)c(C(=O)N[C@@H]3CCN(C(=O)Oc4cccc(-c5ccc(CN6CCCC(O)C6)cc5)c4)C3)c2)cn1` (stereo partly drawn) [Example 319, 4′-((3-hydroxypiperidin-1-yl)methyl)[1,1′-biphenyl]-3-yl (3R)-3-(2-amino-5-(1-methyl-1H-pyrazol-4-yl)nicotinamido)pyrrolidine-1-carboxylate], the pIC50 is 6.00 to 7.00.

The compound `CC(=O)Nc1ccc(-c2cnc(N)c(C(=O)N[C@@H]3CCN(C(=O)c4ccc(-c5ccc(F)cc5Cl)cc4)C3)c2)cn1` [Example 582, (R)-6′-acetamido-6-amino-N-(1-(2′-chloro-4′-fluoro-[1,1′-biphenyl]-4-carbonyl)pyrrolidin-3-yl)-[3,3′-bipyridine]-5-carboxamide] showed a pIC50 of 6.00 to 7.00. `Cn1cc(-c2cnc(N)c(C(=O)N[C@@H]3CCN(C(=O)c4cccc(Oc5ccc(CN6CCC[C@@H]6CO)cc5)c4)C3)c2)cn1` [Example 447, 2-amino-N—((R)-1-(3-(4-(((R)-2-(hydroxymethyl)pyrrolidin-1-yl)methyl)phenoxy)benzoyl)pyrrolidin-3-yl)-5-(1-methyl-1H-pyrazol-4-yl)nicotinamide] showed a pIC50 of under 6.00. As for `Nc1ncc(-c2cnn(C3CCNCC3)c2)cc1C(=O)N[C@@H]1CCN(C(=O)Oc2cccc(-c3ccccc3)c2)C1` [Example 147, [1,1′-biphenyl]-3-yl (R)-3-(2-amino-5-(1-(piperidin-4-yl)-1H-pyrazol-4-yl)nicotinamido)pyrrolidine-1-carboxylate], the pIC50 is 7.00 to 8.00. `Nc1ncc(-c2cnn(C3CCNCC3)c2)cc1C(=O)NC1CCN(Cc2ccccc2)C1` (centres unmarked) [Example 152, 2-amino-N-(1-benzylpyrrolidin-3-yl)-5-(1-(piperidin-4-yl)-1H-pyrazol-4-yl)nicotinamide] gave a pIC50 of 6.00 to 7.00.

The compound `Cc1ccc(C(=O)N2CC[C@@H](NC(=O)c3cc(-c4cnn(C)c4)cnc3N)C2)cc1C` [Example 415, (R)-2-amino-N-(1-(3,4-dimethylbenzoyl)pyrrolidin-3-yl)-5-(1-methyl-1H-pyrazol-4-yl)nicotinamide] showed a pIC50 of under 6.00. With `Cn1cc(-c2cnc(N)c(C(=O)N[C@@H]3CCN(C(=O)c4ccc(Br)cc4)C3)c2)cn1` [Example 342, (R)-2-amino-N-(1-(4-bromobenzoyl)pyrrolidin-3-yl)-5-(1-methyl-1H-pyrazol-4-yl)nicotinamide], the negative logarithm of the IC50 (pIC50) is under 6.00. With `Cn1cc(-c2cnc(N)c(C(=O)N[C@@H]3CCN(C(=O)c4ccc(-c5cccc(CN)c5)cc4)C3)c2)cn1` [Example 727, (R)-2-amino-N-(1-(3′-(aminomethyl)-[1,1′-biphenyl]-4-carbonyl)pyrrolidin-3-yl)-5-(1-methyl-1H-pyrazol-4-yl)nicotinamide] the figure was 7.00 to 8.00; with `CC(C)(c1ccc(-c2cnc(N)c(C(=O)N[C@@H]3CCN(C(=O)c4ccc(-c5ccccc5)cc4)C3)c2)cc1)N1CCN(S(=O)(=O)c2ccccc2[N+](=O)[O-])CC1` [Example 783, (R)—N-(1-([1,1′-biphenyl]-4-carbonyl)pyrrolidin-3-yl)-2-amino-5-(4-(2-(4-((2-nitrophenyl)sulfonyl)piperazin-1-yl)propan-2-yl)phenyl)nicotinamide], 6.00 to 7.00. The compound `Cn1cc(-c2cnc(N)c(C(=O)N[C@@H]3CCN(C(=O)Oc4cccc(-c5ccc(CN6CCC[C@@H](N)C6)cc5)c4)C3)c2)cn1` [Example 316, 4′-(((R)-3-aminopiperidin-1-yl)methyl)-[1,1′-biphenyl]-3-yl (R)-3-(2-amino-5-(1-methyl-1H-pyrazol-4-yl)nicotinamido)pyrrolidine-1-carboxylate] showed a pIC50 of 6.00 to 7.00.

(Values after patent US12378224B2 (Dong-A Socio Holdings Co., Ltd., priority 2016, dated 2025).)
